System: yellow mealworm, Tenebrio molitor, L.
Test: Insecticidal evaluation test: hindering metamorphosis of insects (Tenebrio molitor pupae, topical application)
Assay type: in vivo
Conditions: applied in acetone to the venter of pupae 1-25 hours old; 28° C., 40% humidity; graded at adult emergence (6-8 days); average of 2 groups of 20 pupae
Procedure: The degree of activity of a candidate compound to hinder or impede the metamorphosis of insects is measured by treating the penultimate larval stage of a representative insect with the compound and examining it after its last molt toward the adult form for retention of immature features.
Specifically, yellow mealworm, Tenebrio molitor, L., larvae are maintained at 28° C. and 40% humidity on a diet of bran flakes. Prepupae care collected from the culture and kept in separate containers. The pupae collected once daily, are 1-25 hours old at the time of treatment. By means of a syringe, suitable amounts of candidate compounds in […] of acetone are applied to the ventor of Tenebrio molitor, L. pupae. Treated pupae are maintained at 28° C. and 40% humidity until the adults emerged (usually within 6-8 days). Emerged adults are graded as positive, negative, or dead. To be considered a positive response, the presence of typical pupal cuticle, urogomphi, gin trap, and abnormal wings, etc., are required. For each test, 2 groups of 20 pupae were used and the averaged results were reported.
The dose of a candidate compound per pupa that is needed to kill or give a positive response in the above insecticidal evaluation test for 10 of the 20 pupae is determined.

Structure (SMILES)	ED50: dose per pupa needed to kill or give a positive response for 10 of the 20 pupae [μg/pupa]
C=C(C)C(Cl)CCC(C)=CCOc1ccc(SC)cc1 (stereo not shown) [Compound 1]	0.3
C=C(C)C(Cl)CCC(C)=CCOc1ccc(CC)cc1 (stereo not shown) [Compound 2, 1-(4'-ethyl) phenoxy-3,7-dimethyl-6-chloro-2,7-octadiene]	0.1
C=C(C)C(Br)CCC(C)=CCOc1ccc(CC)cc1 (stereo not shown) [Compound 3, 1-(4'-ethyl) phenoxy-3,7-dimethyl-6-bromo-2,7-octadiene]	0.5
C=C(C)C(Cl)CCC1(C)OC1COc1ccc(CC)cc1 (stereo not shown) [Compound 24, 3,7-dimethyl-6-chloro-1-p-ethylphenoxy-2,3-epoxy-7-octene]	0.03
